# Laboratory results published in PMC7094952 (Nature, 2010).
# “And” between values parts separate entries of the source, which are not always exact repeats. Identical values can stand only once. “Also recorded” adds a separate entry of the source. Like-named read-outs stand apart in the source and are kept apart here.
# What was measured:
# [1] = Cytotoxicity in Huh-7 cells; format: cell-based; conditions: human, Huh-7 cells (liver)
# [2] = test system: genotype 1a replicon cells; test: HCV replicon combination study with NS3 inhibitor in genotype 1a replicon cells; format: cell-based, hepatitis C virus; conditions: ITMN-191, overall
# [3] = test system: HCV genotype 1b; format: in vivo, human; conditions: for mean reduction in HCV viral load / range of reduction in HCV viral load: genotype 1b subjects, 24 h
# [4] = test system: HCV genotype 1a replicon (NS5A variants); test: Transient replication assay, genotype 1a wild type and resistant variants; format: cell-based; conditions: Hepatitis C virus, GETYPE1A, most resistant 1a variant, L31V
# [5] = test system: genotype 1a replicon; test: Genotype 1a replicon assay with 40% human serum; format: cell-based; conditions: Hepatitis C virus, GETYPE1A, read-out: EC90 (protein-binding-adjusted)
# [6] = test system: Infectious BVDV; test: BVDV cell protection assay; format: cell-based, bovine viral diarrhoea virus; conditions: Bovine viral diarrhea virus isolates and strains, MDBK, in Bos taurus
# [7] = Preclinical pharmacokinetics; format: in vivo, four preclinical species
# [8] = test system: HCV replicons of genotypes 1a, 1b, 2a, 3a, 4a and 5a; test: HCV replicons, all genotypes tested; format: cell-based; conditions: Hepatitis C virus, read-out: EC50 values, all genotypes tested
# [9] = test system: genotype 1b replicon; test: Genotype 1b replicon assay with 40% human serum; format: cell-based; conditions: Hepatitis C virus, GETYPE1B, read-out: EC90 (protein-binding-adjusted)
# [10] = test system: panel of 10 RNA and DNA viruses; test: organism not typed; format: cell-based
# [11] = Battery of in vitro receptor binding and enzymatic assays; conditions: assessment of promiscuity
# [12] = Single ascending-dose study in healthy, non-HCV-infected subjects; format: in vivo, human
# [13] = test system: HCV genotype 1a; format: in vivo, human; conditions: genotype 1a subjects, 24 h
# [14] = test system: BVDV replicon; test: BVDV replicon; format: cell-based, bovine viral diarrhoea virus; conditions: Bovine viral diarrhea virus isolates and strains, Huh-7, in Bos taurus
# [15] = test system: HCV replicon; test: HCV replicon inhibitor combination studies; format: cell-based, hepatitis C virus; conditions: overall
# [16] = test system: HCV genotype 1; test: Single ascending-dose study in HCV-infected subjects: plasma HCV RNA; format: in vivo, human
# [17] = target: HCV NS3 (Hepatitis C virus genotype 1b, UniProt Q9WMX2); test: Biotin/streptavidin pull-down, immunoblot for NS3; format: binding; conditions: genotype 1b replicon cells
# [18] = target: T1, genotype 1b HCV NS5A (Hepatitis C virus genotype 1b, UniProt Q9WMX2, S2204I); test: NS5A inhibitor binding assay; conditions: 1 μM, genotype 1b replicon cells, about 18 h, streptavidin agarose beads, immunoblot
# T1 sequence (Q9WMX2 1973-2419 S2204I limits assumed): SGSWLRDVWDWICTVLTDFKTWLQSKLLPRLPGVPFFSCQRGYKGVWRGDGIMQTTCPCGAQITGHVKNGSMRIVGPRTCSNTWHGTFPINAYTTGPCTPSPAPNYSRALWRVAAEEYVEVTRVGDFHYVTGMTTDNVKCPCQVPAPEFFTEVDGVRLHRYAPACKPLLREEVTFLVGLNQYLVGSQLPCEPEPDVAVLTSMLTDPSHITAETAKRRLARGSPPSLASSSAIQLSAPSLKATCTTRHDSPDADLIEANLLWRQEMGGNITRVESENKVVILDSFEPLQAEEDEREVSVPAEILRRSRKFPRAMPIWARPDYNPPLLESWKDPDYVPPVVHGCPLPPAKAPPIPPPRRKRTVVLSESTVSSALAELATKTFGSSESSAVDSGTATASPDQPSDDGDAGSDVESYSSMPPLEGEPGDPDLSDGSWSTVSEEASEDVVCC
# [19] = target: HCV NS5B (Hepatitis C virus genotype 1b, UniProt Q9WMX2); test: Biotin/streptavidin pull-down, immunoblot for NS5B; format: binding; conditions: genotype 1b replicon cells
# [20] = target: T2, BVDV NS5A (Bovine viral diarrhea virus, UniProt P19711); test: Biotin/streptavidin pull-down in BVDV replicons; format: binding, bovine viral diarrhoea virus; conditions: replicons expressing BVDV RNA
# T2 sequence (P19711 2774-3269 limits assumed): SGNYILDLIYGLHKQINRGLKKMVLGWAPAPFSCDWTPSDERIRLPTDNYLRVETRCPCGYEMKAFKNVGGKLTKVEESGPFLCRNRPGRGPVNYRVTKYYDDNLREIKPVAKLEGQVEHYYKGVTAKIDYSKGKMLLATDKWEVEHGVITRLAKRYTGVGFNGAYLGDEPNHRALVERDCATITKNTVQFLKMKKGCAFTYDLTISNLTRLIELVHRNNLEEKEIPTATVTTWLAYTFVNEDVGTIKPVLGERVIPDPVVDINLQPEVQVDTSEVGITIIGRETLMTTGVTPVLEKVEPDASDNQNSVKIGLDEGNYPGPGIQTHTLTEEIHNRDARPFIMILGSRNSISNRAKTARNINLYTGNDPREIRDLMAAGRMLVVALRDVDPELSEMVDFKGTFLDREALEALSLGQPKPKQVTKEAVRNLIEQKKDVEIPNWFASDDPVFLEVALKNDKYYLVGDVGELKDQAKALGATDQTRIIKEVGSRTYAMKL
# [21] = test system: Y93H replicon; test: Y93H replicon assay; format: cell-based; conditions: Hepatitis C virus
# [22] = test system: HCV replicon genotype 1b, Con1; test: HCV genotype 1b; format: cell-based; conditions: Hepatitis C virus, GETYPE1B, read-out: EC50 (subgenomic viral RNA replication)
# [23] = 1 mg single dose, 24 h after administration
compound,measurement,setting,value
COC(=O)N[C@H](C(=O)N1CCC[C@H]1c1ncc(-c2ccc(-c3ccc(-c4cnc([C@@H]5CCCN5C(=O)[C@@H](NC(=O)OC)C(C)C)[nH]4)cc3)cc2)[nH]1)C(C)C [BMS-790052],CC50,[1],17 ± 1 µM
same,Combination effect with NS3 protease inhibitor,[2],Additive/synergistic
same,HCV RNA measurement at hour 144,"[3]; 100 mg single dose, two individual subjects with genotype 1b",less than 25 IU ml^-1 and 35 IU ml^-1
same,mean reduction in HCV viral load,[3]; 10 mg,3.6 log10
same,range of reduction in HCV viral load,[3]; 10 mg,3.1–4.0 log10
same,mean reduction in HCV viral load,[3]; 100 mg,3.1 log10
same,range of reduction in HCV viral load,[3]; 100 mg,2.7–3.4 log10
same,EC50,[4],~0.02 µM
same,EC90,[5],0.28 ng/mL
same,"Headache (most frequent adverse event), subjects reporting",HCV-infected subjects,four
same,Safety and tolerability,"HCV-infected subjects, single oral doses up to 100 mg",safe and well tolerated
same,half-life,"both, human, plasma, po",10 to 14 h
same,EC50,[6],12 µM
same,Oral bioavailability,[7]; four preclinical species,orally bioavailable
same,Liver distribution,[7]; preclinical species,distributes effectively to the liver
same,EC50,[8],0.009 to 0.146 nM
same,EC90,[9],0.04 ng/mL
same,EC50,[10],> 10 µM
same,Effects in battery of in vitro receptor binding and enzymatic assays,[11],no significant effects
same,Drug concentrations at and beyond 24 h post-dose,"[12]; all healthy subjects, versus EC90 for genotypes 1a and 1b",greater than the protein-binding-adjusted EC90
same,Exposure versus dose,"[12]; healthy subjects, 1 to 200 mg oral solution",dose-proportional exposures
same,Absorption after oral administration,"[12]; healthy subjects, oral solution",readily absorbed
same,Safety and tolerability,"[12]; healthy subjects, single oral doses up to 200 mg",safe and well tolerated
same,mean reduction in HCV viral load,[13]; 1 mg,1.8 log10
same,range of reduction in HCV viral load,[13]; 1 mg,0.2–3.0 log10
same,mean reduction in HCV viral load,[13]; 10 mg,2.9 log10
same,range of reduction in HCV viral load,[13]; 10 mg,2.9–3.0 log10
same,mean reduction in HCV viral load,[13]; 100 mg,3.6 log10
same,range of reduction in HCV viral load,[13]; 100 mg,3.5–3.6 log10
same,EC50,[14],9 µM
same,Combination effect with Interferon-α2β (intron A),[15],Synergistic
same,Combination effect with nucleoside NS5B polymerase inhibitor NM-107,[15],Additive/synergistic
same,Combination effect with non-nucleoside NS5B polymerase inhibitor,[15]; palm site II allosteric inhibitor,Additive/synergistic
same,mean reduction in HCV viral load,[16]; [23],1.8 log10
same,range of reduction in HCV viral load,[16]; [23],0.2–3.0 log10
same,mean maximal HCV RNA decline,[16]; 100 mg single dose,3.6 log10
same,range of maximal HCV RNA decline,[16]; 100 mg single dose,3.0–4.1 log10
O=C1N[C@H]2[C@H](CS[C@H]2CCCCC(=O)N2CCC[C@H]2C(=O)Nc2ccc(/C=C/c3ccc(NC(=O)[C@@H]4CCCN4C(=O)Cc4ccccc4)cc3)cc2)N1 [Compound 1],NS3 in pull-down,[17],not detected
same,Binding to HCV NS5A (pull-down),[18],pulled down efficiently; also recorded: binds
same,NS5B in pull-down,[19],not detected
same,Binding to BVDV NS5A (pull-down),[20],failed to bind
same,EC50,[21],> 10 µM
same,EC50,[22],0.033 µM
O=C1N[C@H]2[C@H](CS[C@H]2CCCCC(=O)N2CCC[C@@H]2C(=O)Nc2ccc(/C=C/c3ccc(NC(=O)[C@H]4CCCN4C(=O)Cc4ccccc4)cc3)cc2)N1 [Compound 2],Binding to HCV NS5A (pull-down),[18],does not
